Data from US20260242478A1, “ANTIBODIES FOR TARGETING PSMA AND CD28 AND USES THEREOF” (Janux Therapeutics, Inc., priority 2023, published 2026).

Key:
[1] = biological target: PSMA Fab (SEQ ID NOs: 19, 20); assay: PSMA Fab binding to peptides, ELISA; details: PSMA Fab binding to biotinylated peptide, ELISA
Protocol: Peptides of Table 9 were evaluated for their ability to bind to PSMA Fab in a standard enzyme linked immunosorbent assay (ELISA) format. […] PSMA Fab diluted in buffer was then added to the peptide captured plates. Bound antibody was detected using a standard horse radish peroxidase conjugate secondary antibody.

[2] = biological target: PSMA Fab (SEQ ID NOs: 19, 20) binding to the PSMA antigen; assay: Inhibition of PSMA Fab binding to PSMA by peptides, competition ELISA (incl. alanine scanning); parameters: key to Mutation Status: tolerant (T); somewhat tolerant (ST); intolerant (IT)
Protocol: PSMA Fab fixed at 0.3 nanomolar (nM) concentration was pre-incubated with 0-100 micromolar (μM) titrated peptides. After a short pre-incubation period, the mixture of titrated peptide with fixed PSMA Fab were added to the PSMA antigen coated plates. After a short incubation on the plates, bound PSMA Fab was detected with a standard horse radish peroxidase conjugated secondary antibody.
The tables also designate each alanine mutation as tolerant (T), somewhat tolerant (ST), or intolerant (IT) based on changes in binding inhibition ability relative to the non-mutated peptide. Cys-5 and Cys-11 of peptide-179 and peptide-180 were not mutated.

[3] = test system: anti-CD28 Fab (SEQ ID NOs: 696, 697); assay: Kinetic binding of peptides to anti-CD28 Fab, BLI; details: for Off rate t½: Table 26; for kdis / kon: Table 30, BLI
[4] = biological target: anti-CD28 scFv (disulfide) (SEQ ID NO: 10); assay: anti-CD28 scFv (disulfide) binding to peptides, ELISA; details: Table 27
Protocol: Peptides were evaluated for their ability to bind to ant-CD28 Fab (SEQ ID NOs: 696.697) or anti-CD28 scFv (disulfide) (SEQ ID NO: 10) in a standard ELISA format as described above.

[5] = test system: anti-CD28 Fab (SEQ ID NOs: 696, 697); assay: anti-CD28 Fab binding to peptides, ELISA; details: for EC50: anti-CD28 Fab
[6] = biological target: anti-CD28 scFv (SEQ ID NO: 9); assay: Kinetic binding of anti-CD28 scFv to peptides, bio-layer interferometry (Octet RED96); details: Table 36; anti-CD28 scFv titrated 100-12.5 nM, 200 nM peptide loaded
Protocol: (§1) Briefly, streptavidin biosensors were loaded with biotinylated peptides and baselined in buffer. […] After a short association period, sensors were transferred into buffer and the dissociation of bound anti-CD28 scFv was measured. The timing and steps of the experiment are shown in the accompanying table. Association and dissociation signals were recorded in real time and analyzed using a 1:1 binding model within the instrument software. Analysis using a 1:1 binding model enabled the calculation of the on and off rate constants as well as affinity, KD.
as §1, with “KD. FIGS. 70A-70F illustrate kinetic binding of anti-CD28 scFv binding to peptides as measured by Octet. FIGS. 70G-70U illustrate kinetic binding of peptides to the anti-CD28 scFv as measured by Octet.” for “KD.”

[7] = Table 38, PSMA Fab fixed at 0.3 nM, peptide 0-100 μM
[8] = Table 37, PSMA Fab fixed at 0.3 nM, peptide 0-100 μM
[9] = Table 41, alanine scanning of Peptide-180, change in binding inhibition relative to non-mutated peptide
[10] = Table 39, PSMA Fab fixed at 0.3 nM, peptide 0-100 μM
[11] = Table 40, alanine scanning of Peptide-179, change in binding inhibition relative to non-mutated peptide

anti-CD28 scFv (SEQ ID NO: 9), sequence (as listed by the source): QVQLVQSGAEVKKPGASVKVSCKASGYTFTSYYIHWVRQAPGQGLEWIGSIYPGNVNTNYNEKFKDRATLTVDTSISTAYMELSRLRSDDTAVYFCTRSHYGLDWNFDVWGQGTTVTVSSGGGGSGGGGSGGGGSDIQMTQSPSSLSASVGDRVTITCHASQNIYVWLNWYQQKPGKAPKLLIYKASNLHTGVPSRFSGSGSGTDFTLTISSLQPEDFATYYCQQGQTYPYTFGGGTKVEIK
anti-CD28 scFv (disulfide) (SEQ ID NO: 10), sequence (as listed by the source): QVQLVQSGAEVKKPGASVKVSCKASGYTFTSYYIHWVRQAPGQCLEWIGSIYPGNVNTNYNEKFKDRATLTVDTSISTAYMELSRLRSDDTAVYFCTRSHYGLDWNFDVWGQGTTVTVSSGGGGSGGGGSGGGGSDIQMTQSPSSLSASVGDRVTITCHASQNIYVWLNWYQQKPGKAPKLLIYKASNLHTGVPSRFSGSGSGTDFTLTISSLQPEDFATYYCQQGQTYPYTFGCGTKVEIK
PSMA Fab (SEQ ID NOs: 19, 20) binding to the PSMA antigen, sequence (as listed by the source): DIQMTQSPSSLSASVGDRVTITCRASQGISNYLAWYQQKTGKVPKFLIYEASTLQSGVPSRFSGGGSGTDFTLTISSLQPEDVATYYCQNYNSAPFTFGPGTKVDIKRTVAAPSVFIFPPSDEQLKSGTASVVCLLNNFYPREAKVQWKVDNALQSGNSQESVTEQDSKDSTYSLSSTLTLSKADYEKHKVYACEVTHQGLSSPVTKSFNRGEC
PSMA Fab (SEQ ID NOs: 19, 20) binding to the PSMA antigen, sequence (as listed by the source): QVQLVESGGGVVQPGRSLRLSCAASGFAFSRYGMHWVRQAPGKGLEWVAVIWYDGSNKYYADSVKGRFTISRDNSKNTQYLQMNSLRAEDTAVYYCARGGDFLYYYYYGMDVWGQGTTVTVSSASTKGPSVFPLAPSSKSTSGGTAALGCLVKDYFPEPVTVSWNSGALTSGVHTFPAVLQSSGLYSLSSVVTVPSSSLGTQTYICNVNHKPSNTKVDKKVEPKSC
PSMA Fab (SEQ ID NOs: 19, 20) binding to the PSMA antigen, sequence (Q04609 whole entry partner): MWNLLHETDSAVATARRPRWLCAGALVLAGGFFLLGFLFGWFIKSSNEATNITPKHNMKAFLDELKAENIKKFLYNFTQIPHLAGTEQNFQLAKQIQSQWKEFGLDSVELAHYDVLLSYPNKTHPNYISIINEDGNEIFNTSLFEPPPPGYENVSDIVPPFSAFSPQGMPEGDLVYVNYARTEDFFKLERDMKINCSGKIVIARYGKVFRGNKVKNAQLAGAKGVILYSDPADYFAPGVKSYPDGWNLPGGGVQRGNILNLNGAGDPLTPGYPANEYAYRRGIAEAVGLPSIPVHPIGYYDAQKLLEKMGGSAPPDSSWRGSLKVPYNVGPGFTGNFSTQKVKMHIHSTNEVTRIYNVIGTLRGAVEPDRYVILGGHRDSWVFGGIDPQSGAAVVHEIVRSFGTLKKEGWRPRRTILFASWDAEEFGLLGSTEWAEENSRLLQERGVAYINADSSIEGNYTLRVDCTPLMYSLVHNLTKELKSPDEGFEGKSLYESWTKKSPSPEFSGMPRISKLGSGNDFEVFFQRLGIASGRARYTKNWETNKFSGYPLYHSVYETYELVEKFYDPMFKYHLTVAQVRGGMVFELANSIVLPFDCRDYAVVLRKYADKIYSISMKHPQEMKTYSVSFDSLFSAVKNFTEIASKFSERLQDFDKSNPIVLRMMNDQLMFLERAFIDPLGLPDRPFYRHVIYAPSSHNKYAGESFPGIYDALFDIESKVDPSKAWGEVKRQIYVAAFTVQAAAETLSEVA
anti-CD28 Fab (SEQ ID NOs: 696, 697), sequence (as listed by the source): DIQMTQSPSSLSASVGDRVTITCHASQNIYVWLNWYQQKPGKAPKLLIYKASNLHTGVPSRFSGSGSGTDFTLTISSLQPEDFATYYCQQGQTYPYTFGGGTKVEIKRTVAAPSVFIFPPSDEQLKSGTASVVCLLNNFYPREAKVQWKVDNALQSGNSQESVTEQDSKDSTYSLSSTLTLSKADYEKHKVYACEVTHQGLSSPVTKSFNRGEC
anti-CD28 Fab (SEQ ID NOs: 696, 697), sequence (as listed by the source): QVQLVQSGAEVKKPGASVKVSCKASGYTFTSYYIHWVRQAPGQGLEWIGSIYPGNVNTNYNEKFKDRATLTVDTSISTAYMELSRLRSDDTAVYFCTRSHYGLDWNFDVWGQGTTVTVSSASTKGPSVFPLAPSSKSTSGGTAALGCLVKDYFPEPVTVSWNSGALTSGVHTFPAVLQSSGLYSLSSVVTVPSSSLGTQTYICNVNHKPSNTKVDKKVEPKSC

Substance: FCGWMDGDVFWFCG [Peptide-171]
- EC50 ([1]; Table 37): > 1000 nM

Substance: FCQWIEATNAWLCY [Peptide-170]
- EC50 ([1]; Table 37): > 1000 nM

Substance: FVCWTFGEHIKVCR [Peptide-186]
- EC50 ([1]; Table 38): > 3000 nM
- IC50 [2, 7]: > 100000 nM

Substance: YCAGHAWQYINKCL [Peptide-87]
- Off rate t½ [3]: 42 s
- kdis [3]: 0.0202 s⁻¹
- kon [3]: 10000 M⁻¹ s⁻¹
- EC50 [4]: 156 nM
- binding to the anti-CD28 Fab [5]: strong binding
- EC50 ([5]; Table 24): 49 nM
- EC50 ([5]; Table 26): 30.6 nM

Substance: DCFYAADIHWNYCN [Peptide-157]
- EC50 ([1]; Table 37): > 1000 nM

Substance: HCLGPALGPVDGDC [Peptide-189]
- EC50 ([1]; Table 38): > 3000 nM
- IC50 [2, 7]: > 100000 nM

Substance: ACHSLVLKHHLQKC [Peptide-176]
- EC50 ([1]; Table 37): > 1000 nM

Substance: SCFSFARLEVVPCD [Peptide-159]
- EC50 ([1]; Table 37): > 1000 nM

Substance: SCGWLRGEEFGWWC [Peptide-190]
- EC50 ([1]; Table 38): > 3000 nM
- IC50 [2, 7]: > 100000 nM

Substance: NCFFAADIHWNFCT [Peptide-169]
- EC50 ([1]; Table 37): > 1000 nM

Substance: HCKFHDYHSWYMCY [Peptide-175]
- EC50 ([1]; Table 37): > 1000 nM

Substance: MEYCSFHRFTCVLW [Peptide-174]
- EC50 ([1]; Table 37): > 1000 nM

Substance: DCWWMFESYPGRCI [Peptide-86]
- EC50 [4]: > 1000 nM
- EC50 ([5]; Table 24): > 1000 nM

Substance: DCPWLSGFSRPLLC [Peptide-93]
- EC50 [4]: > 1000 nM
- EC50 ([5]; Table 24): > 1000 nM

Substance: YCEGHLPEYIEKCL [Peptide-120]
- kdis [3]: 0.0239 s⁻¹
- kon [3]: 25800 M⁻¹ s⁻¹
- EC50 ([5]; Table 26): 3.1 nM

Substance: YWYCSPSIVRCVLV [Peptide-89]
- EC50 [4]: > 1000 nM
- EC50 ([5]; Table 24): > 1000 nM

Substance: ICQWIGATNAWVCY [Peptide-164]
- Binding EC50 ([1]; Table 37): high background
- IC50 [2, 8]: > 100000 nM

Substance: YCEGHLPEYIQKCL [Peptide-134]
- Off rate t½ [3]: 54 s
- kdis [3]: 0.0115 s⁻¹

Substance: MDWCPRDLWVHCFA [Peptide-41]
- EC50 [4]: 98.5 nM
- EC50 ([5]; Table 24): 490 nM
- Kd [6]: 42.3 nM
- kdis [6]: 0.00154 s⁻¹
- kon [6]: 36400 M⁻¹ s⁻¹

Substance: IECAYMTDQRFWCW [Peptide-188]
- EC50 ([1]; Table 38): > 3000 nM

Substance: GCQYPWAFDAMSCP [Peptide-80]
- EC50 [4]: > 1000 nM
- EC50 ([5]; Table 24): > 1000 nM

Substance: WICDKSGSIMLCRA [Peptide-91]
- EC50 [4]: > 1000 nM
- EC50 ([5]; Table 24): > 1000 nM

Substance: YECHQGLFHRWCVN [Peptide-185]
- EC50 ([1]; Table 38): > 3000 nM

Substance: NAHCWLWVPAHCRV [Peptide-167]
- EC50 ([1]; Table 37): > 1000 nM
- IC50 [2, 8]: > 100000 nM

Substance: PDCVYHSFWGYSCR [Peptide-178]
- EC50 ([1]; Table 37): > 1000 nM

Substance: YCEGHLPEYIWKCL [Peptide-135]
- Off rate t½ [3]: 54 s
- EC50 ([5]; Table 26): 2.1 nM

Substance: IRCVGEGHDLVCIF [Peptide-162]
- EC50 ([1]; Table 37): > 1000 nM

Substance: WECLKYTEANACTY [Peptide-76]
- EC50 [4]: > 1000 nM
- EC50 ([5]; Table 24): > 1000 nM

Substance: YCAGMSTIQLWLKC [Peptide-94]
- EC50 [4]: > 1000 nM
- EC50 ([5]; Table 24): > 1000 nM

Substance: FCNWVDGDVWVVCK [Peptide-172]
- EC50 ([1]; Table 37): > 1000 nM

Substance: FGHCAGSPVFCAYW [Peptide-168]
- EC50 ([1]; Table 37): > 1000 nM

Substance: SIPCIPRDWLCPIK [Peptide-163]
- EC50 ([1]; Table 37): > 1000 nM

Substance: PDCQTILFKPWCVR [Peptide-78]
- EC50 [4]: > 1000 nM
- EC50 ([5]; Table 24): > 1000 nM

Substance: HLFCWEGSDRCAWV [Peptide-165]
- EC50 ([1]; Table 37): > 1000 nM

Substance: SIPCIPRDWLCPIK [Peptide-182]
- EC50 ([1]; Table 38): > 3000 nM
- IC50 [2, 7]: > 100000 nM

Substance: IRCVGEGHDLVCIF [Peptide-184]
- EC50 ([1]; Table 38): > 3000 nM
- IC50 [2, 7]: > 100000 nM

Substance: YCEGHLPEYLAKCL [Peptide-127]
- kdis [3]: 0.0118 s⁻¹
- EC50 ([5]; Table 26): 1.7 nM

Substance: PELRCVPFWMCSFN [Peptide-181]
- EC50 ([1]; Table 38): 3 nM

Substance: PDCHTILFKPWCVR [Peptide-90]
- EC50 [4]: > 1000 nM
- EC50 ([5]; Table 24): > 1000 nM

Substance: YWSCFQIPFTCFYF [Peptide-75]
- EC50 [4]: > 1000 nM
- EC50 ([5]; Table 24): > 1000 nM

Substance: NCWWHDFRAGHVVC [Peptide-161]
- EC50 ([1]; Table 37): > 1000 nM

Substance: YCEGHLPEYRNKCL [Peptide-132]
- kdis [3]: 0.0138 s⁻¹
- EC50 ([5]; Table 26): 3.2 nM

Substance: ACDTYFAGMINECF [Peptide-79]
- EC50 [4]: 73.2 nM
- EC50 ([5]; Table 24): 97 nM

Substance: WCWYYREWVPMTCP [Peptide-88]
- EC50 [4]: > 1000 nM
- EC50 ([5]; Table 24): > 1000 nM

Substance: ECHWSMWAVGHACF [Peptide-83]
- EC50 [4]: > 1000 nM
- EC50 ([5]; Table 24): > 1000 nM

Substance: IAVLCQPNAMCAGF [Peptide-257]
- Mutation Status [2, 9]: IT
- IC50 ([2]; Table 41, competition binding ELISA, alanine scanning sequences of Peptide-180): > 100000 nM

Substance: SCGWLRGEEFGWWC [Peptide-177]
- EC50 ([1]; Table 37): > 1000 nM

Substance: IAVLCQPNWMCAAF [Peptide-259]
- Mutation Status [2, 9]: ST

Substance: WCWDYREWVPMTCP [Peptide-82]
- EC50 [4]: > 1000 nM
- EC50 ([5]; Table 24): > 1000 nM

Substance: YCEGHLPEYREKCL [Peptide-126]
- kdis [3]: 0.0191 s⁻¹

Substance: ILCGLYEALVSECG [Peptide-187]
- EC50 ([1]; Table 38): > 3000 nM
- IC50 [2, 7]: > 100000 nM

Substance: FMCLPQNPHPLCFK [Peptide-77]
- EC50 [4]: > 1000 nM
- EC50 ([5]; Table 24): > 1000 nM

Substance: WCWDYKLWVPTQCP [Peptide-81]
- EC50 [4]: > 1000 nM
- EC50 ([5]; Table 24): > 1000 nM

Substance: HCEFHDYQSCDVLY [Peptide-211]
- IC50 [2, 10]: > 100000 nM

Substance: IAVACQPNWMCAGF [Peptide-253]
- Mutation Status [2, 9]: ST

Substance: PLCGTEEVWWECRL [Peptide-166]
- EC50 ([1]; Table 37): > 1000 nM

Substance: WCWDYKLWVPMTCP [Peptide-85]
- EC50 [4]: > 1000 nM
- EC50 ([5]; Table 24): > 1000 nM

Substance: LAKWCTPRWMCAAE [Peptide-242]
- Mutation Status [2, 11]: T

Substance: TCLRFADLAIIHCD [Peptide-160]
- EC50 ([1]; Table 37): > 1000 nM

Substance: YCEGHAPEYIAKCL [Peptide-121]
- kdis [3]: 0.028 s⁻¹
- kon [3]: 33700 M⁻¹ s⁻¹
- EC50 ([5]; Table 26): 7.1 nM

Substance: YCAGHSPINIGKCL [Peptide-84]
- EC50 [4]: > 1000 nM
- EC50 ([5]; Table 24): 337 nM

Substance: LCEWWTSHVDAWCA [Peptide-213]
- IC50 [2, 10]: > 100000 nM

Substance: EGCLTLVDGRAWCW [Peptide-173]
- EC50 ([1]; Table 37): > 1000 nM

Substance: LCQWYPKFHWMDCD [Peptide-210]
- IC50 [2, 10]: > 100000 nM

Substance: LMKWCTPAWMCAAE [Peptide-247]
- Mutation Status [2, 11]: T

Substance: MEYCSFHRFTCVLW [Peptide-183]
- IC50 [2, 7]: > 100000 nM

Substance: MEYCSFHRFTCVLW [Peptide-193]
- IC50 [2, 10]: > 100000 nM

Substance: YECHQGLFHRWCVN [Peptide-158]
- Binding EC50 ([1]; Table 37): high background

Substance: Peptide-2687 (LMAWCTPRWMCAAE)
- Mutation Status [2, 11]: ST

Substance: MCFVTGWGVPDDCN [Peptide-208]
- IC50 [2, 10]: > 100000 nM
